This test has as its system MV-4-11 cells. The experiment in a line: Gene expression microarray analysis (Affymetrix PrimeView) and GSEA. Format: cell-based, human. The arrangement: RFU PODN (11730768_x_at) / Fold change /veh PODN (11730768_x_at) / RFU LINC00158 (11744669_a_at) / Fold change /veh LINC00158 (11744669_a_at) / RFU DUSP10 (11751237_a_at) / Fold change /veh DUSP10 (11751237_a_at) / RFU ID3 (11757404_x_at) / Fold change /veh ID3 (11757404_x_at) / RFU PLEKHG5 (11737974_s_at) / Fold change /veh PLEKHG5 (11737974_s_at) / RFU LRRC4B (11730491_at) / Fold change /veh LRRC4B (11730491_at) / RFU GIMAP4 (11747438_a_at) / Fold change /veh GIMAP4 (11747438_a_at) / RFU KRT8 (11758183_x_at) / Fold change /veh KRT8 (11758183_x_at) / RFU CNN1 (11734310_a_at) / Fold change /veh CNN1 (11734310_a_at) / RFU VPS37D (11726825_at) / Fold change /veh VPS37D (11726825_at) / RFU C10orf10 (11716522_x_at) / Fold change /veh C10orf10 (11716522_x_at) / RFU KIR2DL2 /// KIR2DL4 /// KIR2DL5A /// KIR2DL5B /// KIR2DS1 /// KIR2DS2 /// KIR2DS3 /// KIR2DS4 /// KIR3DL3 /// KIR3DL3 /// KIR3DS1 (11738374_at) / Fold change /veh KIR2DL2 /// KIR2DL4 /// KIR2DL5A /// KIR2DL5B /// KIR2DS1 /// KIR2DS2 /// KIR2DS3 /// KIR2DS4 /// KIR3DL3 /// KIR3DL3 /// KIR3DS1 (11738374_at) / RFU C1QL1 (11718748_at) / Fold change /veh C1QL1 (11718748_at) / RFU TMPRSS4 (11747572_a_at) / Fold change /veh TMPRSS4 (11747572_a_at) / RFU HAMP (11756126_x_at) / Fold change /veh HAMP (11756126_x_at) / RFU RNFT2 (11725882_a_at) / Fold change /veh RNFT2 (11725882_a_at) / RFU NR4A2 (11747474_a_at) / Fold change /veh NR4A2 (11747474_a_at) / RFU ABCC12 (11746883_a_at) / Fold change /veh ABCC12 (11746883_a_at) / RFU TMEM136 (11760407_x_at) / Fold change /veh TMEM136 (11760407_x_at) / RFU CLDN22 /// WWC2 (11732394_at) / Fold change /veh CLDN22 /// WWC2 (11732394_at) / RFU HLA-DPB1 (11760878_x_at) / Fold change /veh HLA-DPB1 (11760878_x_at) / RFU SPINT1 (11716480_a_at) / Fold change /veh SPINT1 (11716480_a_at) / RFU GAP43 (11754022_s_at) / Fold change /veh GAP43 (11754022_s_at) / RFU A4GNT (11735810_at) / Fold change /veh A4GNT (11735810_at) / RFU PRB3 (11715151_x_at) / Fold change /veh PRB3 (11715151_x_at) / RFU TUBB4B (11761932_at) / Fold change /veh TUBB4B (11761932_at) / RFU CAPN14 (11732068_a_at) / Fold change /veh CAPN14 (11732068_a_at) / RFU TMCC2 (11721928_a_at) / Fold change /veh TMCC2 (11721928_a_at) / RFU IRGQ (11745062_a_at) / Fold change /veh IRGQ (11745062_a_at) / RFU FAM174B (11720279_a_at) / Fold change /veh FAM174B (11720279_a_at) / RFU TMPRSS4 (11748680_a_at) / Fold change /veh TMPRSS4 (11748680_a_at) / RFU FAM212B (11763350_a_at) / Fold change /veh FAM212B (11763350_a_at) / RFU PLEKHG5 (11743358_a_at) / Fold change /veh PLEKHG5 (11743358_a_at) / RFU ZSCAN30 (11745921_a_at) / Fold change /veh ZSCAN30 (11745921_a_at) / RFU CMKLR1 (11741424_a_at) / Fold change /veh CMKLR1 (11741424_a_at) / RFU LOC101060620 /// MAPK8IP1 (11723275_at) / Fold change /veh LOC101060620 /// MAPK8IP1 (11723275_at) / RFU SPTSSB (11747773_x_at) / Fold change /veh SPTSSB (11747773_x_at) / RFU PRSS12 (11739890_at) / Fold change /veh PRSS12 (11739890_at) / RFU BIN1 (11741810_x_at) / Fold change /veh BIN1 (11741810_x_at) / RFU WNT11 (11732464_a_at) / Fold change /veh WNT11 (11732464_a_at) / RFU C10orf10 (11716521_a_at) / Fold change /veh C10orf10 (11716521_a_at) / RFU C5orf56 (11738089_at) / Fold change /veh C5orf56 (11738089_at) / RFU CYB561 (11721691_x_at) / Fold change /veh CYB561 (11721691_x_at) / RFU ANKRD19P (11752326_a_at) / Fold change /veh ANKRD19P (11752326_a_at) / RFU OR2T12 /// OR2T33 /// OR2T8 (11738714_s_at) / Fold change /veh OR2T12 /// OR2T33 /// OR2T8 (11738714_s_at) / RFU VCAN (11748164_a_at) / Fold change /veh VCAN (11748164_a_at) / RFU JSRP1 (11732532_at) / Fold change /veh JSRP1 (11732532_at) / RFU KRTAP10-11 (11738290_x_at) / Fold change /veh KRTAP10-11 (11738290_x_at) / RFU MYO3A (11730013_a_at) / Fold change /veh MYO3A (11730013_a_at) / RFU EBF3 (11725865_a_at) / Fold change /veh EBF3 (11725865_a_at) / RFU CAMK2N1 (11719241_x_at) / Fold change /veh CAMK2N1 (11719241_x_at) / RFU C5orf56 (11738088_a_at) / Fold change /veh C5orf56 (11738088_a_at) / RFU OLFML3 (11715873_a_at) / Fold change /veh OLFML3 (11715873_a_at) / RFU LOC100653217 /// NTM (11731650_a_at) / Fold change /veh LOC100653217 /// NTM (11731650_a_at) / RFU MAPK11 (11762145_a_at) / Fold change /veh MAPK11 (11762145_a_at) / RFU FIZ1 (11724087_x_at) / Fold change /veh FIZ1 (11724087_x_at) / RFU OASL (11726364_x_at) / Fold change /veh OASL (11726364_x_at) / RFU SOX15 (11748057_x_at) / Fold change /veh SOX15 (11748057_x_at) / RFU CD79A (11719716_a_at) / Fold change /veh CD79A (11719716_a_at) / RFU HIST1H1D (11736915_at) / Fold change /veh HIST1H1D (11736915_at) / RFU CASKIN2 (11723855_a_at) / Fold change /veh CASKIN2 (11723855_a_at) / RFU LOC730098 (11760151_x_at) / Fold change /veh LOC730098 (11760151_x_at) / RFU OR4N2 (11742367_at) / Fold change /veh OR4N2 (11742367_at) / RFU PRRT2 (11749266_a_at) / Fold change /veh PRRT2 (11749266_a_at) / RFU SNX32 (11753110_a_at) / Fold change /veh SNX32 (11753110_a_at) / RFU CDHR5 (11726645_a_at) / Fold change /veh CDHR5 (11726645_a_at) / RFU RCAN1 (11760418_a_at) / Fold change /veh RCAN1 (11760418_a_at) / RFU FAM167A (11723789_a_at) / Fold change /veh FAM167A (11723789_a_at) / RFU FAM26E (11764081_at) / Fold change /veh FAM26E (11764081_at) / RFU ISYNA1 (11749810_s_at) / Fold change /veh ISYNA1 (11749810_s_at) / RFU ACY1 (11761880_at) / Fold change /veh ACY1 (11761880_at) / RFU 11764098_at / Fold change /veh 11764098_at / RFU SAMD14 (11745864_x_at) / Fold change /veh SAMD14 (11745864_x_at) / RFU NPB (11741838_a_at) / Fold change /veh NPB (11741838_a_at) / RFU TMPRSS6 (11731388_a_at) / Fold change /veh TMPRSS6 (11731388_a_at) / RFU KRTAP10-2 (11738614_at) / Fold change /veh KRTAP10-2 (11738614_at) / RFU ARHGAP8 /// PRR5-ARHGAP8 (11727945_x_at) / Fold change /veh ARHGAP8 /// PRR5-ARHGAP8 (11727945_x_at) / RFU KRTAP5-7 /// NADSYN1 (11734609_at) / Fold change /veh KRTAP5-7 /// NADSYN1 (11734609_at) / RFU RASL12 (11751679_a_at) / Fold change /veh RASL12 (11751679_a_at) / RFU CDKN2B (11736163_a_at) / Fold change /veh CDKN2B (11736163_a_at) / RFU PRF1 (11729649_at) / Fold change /veh PRF1 (11729649_at) / RFU, ZNF638 /// ZNF638-IT1 / Fold change vs veh, ZNF638 /// ZNF638-IT1 / RFU, PANK3 / Fold change vs veh, PANK3 / RFU, SH3YL1 / Fold change vs veh, SH3YL1 / RFU, ZEB2 / Fold change vs veh, ZEB2 / RFU, NRIP1 / Fold change vs veh, NRIP1 / RFU, PTTG1IP / Fold change vs veh, PTTG1IP / RFU, CAPN2 / Fold change vs veh, CAPN2 / RFU, MED14 / Fold change vs veh, MED14 / RFU, SNORA58 / Fold change vs veh, SNORA58 / RFU, C1orf63 / Fold change vs veh, C1orf63 / RFU, LRRFIP1 / Fold change vs veh, LRRFIP1 / RFU, NDUFAF7 / Fold change vs veh, NDUFAF7 / RFU, SLC12A2 / Fold change vs veh, SLC12A2 / RFU, IBTK / Fold change vs veh, IBTK / RFU, ESF1 / Fold change vs veh, ESF1 / Fold change vs veh, TMEM50B / RFU, TAOK1 / Fold change vs veh, TAOK1 / RFU, ACBD3 / Fold change vs veh, ACBD3 / RFU, TMA16 / Fold change vs veh, TMA16 / RFU, RWDD3 / Fold change vs veh, RWDD3 / RFU, BCAT1 / Fold change vs veh, BCAT1 / RFU, EDEM3 / Fold change vs veh, EDEM3 / RFU, TMEM33 / Fold change vs veh, TMEM33 / RFU, WDR75 / Fold change vs veh, WDR75 / RFU, AHCTF1 / Fold change vs veh, AHCTF1 / RFU, TFRC / Fold change vs veh, TFRC / RFU, ZDHHC17 / Fold change vs veh, ZDHHC17 / RFU, NOM1 / Fold change vs veh, NOM1 / RFU, ARL8B / Fold change vs veh, ARL8B / RFU, ZBTB11 / Fold change vs veh, ZBTB11 / RFU, TAMM41 / Fold change vs veh, TAMM41 / RFU, KIAA1704 /// LOC100996395 / Fold change vs veh, KIAA1704 /// LOC100996395 / RFU, ING1 / Fold change vs veh, ING1 / RFU, TRMT61B / Fold change vs veh, TRMT61B / RFU, FUBP3 / Fold change vs veh, FUBP3 / RFU, TP53 / Fold change vs veh, TP53 / RFU, TNKS2 / Fold change vs veh, TNKS2 / RFU, ZFP14 / Fold change vs veh, ZFP14 / RFU, ACTR2 / Fold change vs veh, ACTR2 / RFU, PPP3R1 / Fold change vs veh, PPP3R1 / RFU, PIK3R1 / Fold change vs veh, PIK3R1 / RFU, HNRNPA1 / Fold change vs veh, HNRNPA1 / RFU, RNF170 / Fold change vs veh, RNF170 / RFU, ZNF28 / Fold change vs veh, ZNF28 / RFU, RNGTT / Fold change vs veh, RNGTT / RFU, OGT / Fold change vs veh, OGT / RFU, BRD1 / Fold change vs veh, BRD1 / RFU, MARS / Fold change vs veh, MARS / RFU, ZNF655 / Fold change vs veh, ZNF655 / RFU, FAHD1 / Fold change vs veh, FAHD1 / RFU, BDP1 / Fold change vs veh, BDP1 / RFU, LRRCC1 / Fold change vs veh, LRRCC1 / RFU, ARID1A / Fold change vs veh, ARID1A / RFU, ZNF146 / Fold change vs veh, ZNF146 / RFU, ZNF330 / Fold change vs veh, ZNF330 / RFU, GPN3 / Fold change vs veh, GPN3 / RFU, C9orf123 / Fold change vs veh, C9orf123 / RFU, N4BP2L2 / Fold change vs veh, N4BP2L2 / RFU, ARFIP1 / Fold change vs veh, ARFIP1 / RFU, FAM179B / Fold change vs veh, FAM179B / RFU, BCL10 / Fold change vs veh, BCL10 / RFU, UHRF1BP1L / Fold change vs veh, UHRF1BP1L / RFU, BET1 / Fold change vs veh, BET1 / RFU, CNOT2 / Fold change vs veh, CNOT2 / RFU, ZNF268 / Fold change vs veh, ZNF268 / Fold change vs veh, ZNF507 / RFU, DGCR2 / Fold change vs veh, DGCR2 / RFU, WDSUB1 / Fold change vs veh, WDSUB1 / Fold change vs veh, HSP90B1 /// MIR3652 / RFU, ADSS / Fold change vs veh, ADSS / RFU, GK / Fold change vs veh, GK / RFU, ZNF148 / Fold change vs veh, ZNF148 / RFU, TAF9 / Fold change vs veh, TAF9 / RFU, SLC1A5 / Fold change vs veh, SLC1A5 / RFU, SLMO2 / Fold change vs veh, SLMO2 / RFU, ABCC4 / Fold change vs veh, ABCC4 / RFU, LOC101060439 /// RAP1B / Fold change vs veh, LOC101060439 /// RAP1B / RFU, RFX7 / Fold change vs veh, RFX7 / RFU, GTPBP10 / Fold change vs veh, GTPBP10 / RFU, CNEP1R1 / Fold change vs veh, CNEP1R1 / RFU, BIVM-ERCC5 /// ERCC5 / Fold change vs veh, BIVM-ERCC5 /// ERCC5 / RFU, ILF3 / Fold change vs veh, ILF3 / RFU 11762660_at / Fold change /veh 11762660_at / RFU VCAN (11757783_s_at) / Fold change /veh VCAN (11757783_s_at) / RFU DDX43 (11728927_at) / Fold change /veh DDX43 (11728927_at) / RFU KRT8 (11758188_x_at) / Fold change /veh KRT8 (11758188_x_at) / RFU NKD1 (11759106_at) / Fold change /veh NKD1 (11759106_at) / RFU SRD5A1 (11742802_a_at) / Fold change /veh SRD5A1 (11742802_a_at) / RFU TPSAB1 /// TPSB2 (11721975_s_at) / Fold change /veh TPSAB1 /// TPSB2 (11721975_s_at) / RFU GSTM3 (11746129_a_at) / Fold change /veh GSTM3 (11746129_a_at) / RFU IL23R (11737362_x_at) / Fold change /veh IL23R (11737362_x_at) / RFU TMEM51 (11727254_a_at) / Fold change /veh TMEM51 (11727254_a_at) / RFU PIWIL2 (11732686_x_at) / Fold change /veh PIWIL2 (11732686_x_at) / RFU ORM1 (11744905_x_at) / Fold change /veh ORM1 (11744905_x_at) / RFU CCDC152 (11743942_at) / Fold change /veh CCDC152 (11743942_at) / RFU ECM1 (11717891_a_at) / Fold change /veh ECM1 (11717891_a_at) / RFU IL23R (11748794_a_at) / Fold change /veh IL23R (11748794_a_at) / RFU TNFAIP8L3 (11732012_x_at) / Fold change /veh TNFAIP8L3 (11732012_x_at) / RFU MBOAT4 (11741988_at) / Fold change /veh MBOAT4 (11741988_at) / RFU 11764193_at / Fold change /veh 11764193_at / RFU TMEM53 (11763286_at) / Fold change /veh TMEM53 (11763286_at) / RFU MAGEB2 (11727129_at) / Fold change /veh MAGEB2 (11727129_at) / RFU TMEM200A (11744735_a_at) / Fold change /veh TMEM200A (11744735_a_at) / RFU CCDC152 (11751479_a_at) / Fold change /veh CCDC152 (11751479_a_at) / RFU FAM211A (11726209_a_at) / Fold change /veh FAM211A (11726209_a_at) / RFU RGS16 (11746705_a_at) / Fold change /veh RGS16 (11746705_a_at) / RFU VCAN (11755009_s_at) / Fold change /veh VCAN (11755009_s_at) / RFU RHOB (11743442_s_at) / Fold change /veh RHOB (11743442_s_at) / RFU RGS16 (11720943_a_at) / Fold change /veh RGS16 (11720943_a_at) / RFU RGS16 (11720944_at) / Fold change /veh RGS16 (11720944_at) / RFU, VPS4B / Fold change vs veh, VPS4B / RFU, CREB1 / Fold change vs veh, CREB1 / RFU, DNAJC13 / Fold change vs veh, DNAJC13 / RFU, GNAQ / Fold change vs veh, GNAQ / RFU, CDK5R1 / Fold change vs veh, CDK5R1 / RFU, ZRANB3 / Fold change vs veh, ZRANB3 / RFU, CUL4A / Fold change vs veh, CUL4A / RFU, CCNY / Fold change vs veh, CCNY / RFU, UFL1 / Fold change vs veh, UFL1 / RFU, COG3 / Fold change vs veh, COG3 / RFU, DIAPH2 / Fold change vs veh, DIAPH2 / RFU, SKA2 / Fold change vs veh, SKA2 / RFU, AFF3 / Fold change vs veh, AFF3 / RFU, LMF1 / Fold change vs veh, LMF1 / RFU, IPO11 / Fold change vs veh, IPO11 / RFU, DFFB / Fold change vs veh, DFFB / RFU, FOXP1 / Fold change vs veh, FOXP1 / RFU, CARD8 / Fold change vs veh, CARD8 / RFU, STRN3 / Fold change vs veh, STRN3 / RFU, ADK / Fold change vs veh, ADK / RFU, RASSF2 / Fold change vs veh, RASSF2 / RFU, WIPF1 / Fold change vs veh, WIPF1 / RFU, LARP1B / Fold change vs veh, LARP1B / RFU, RASA1 / Fold change vs veh, RASA1 / RFU, RB1 / Fold change vs veh, RB1 / RFU, PPFIA1 / Fold change vs veh, PPFIA1 / RFU, MAT2A / Fold change vs veh, MAT2A / RFU, CCT5 / Fold change vs veh, CCT5 / RFU, WDR92 / Fold change vs veh, WDR92 / RFU, CUX1 / Fold change vs veh, CUX1 / RFU, TTC7A / Fold change vs veh, TTC7A / RFU, TMEM135 / Fold change vs veh, TMEM135 / RFU, DEPTOR / Fold change vs veh, DEPTOR / RFU, CPM / Fold change vs veh, CPM / RFU, DNAJB6 / Fold change vs veh, DNAJB6 / RFU, CACNA2D3 / Fold change vs veh, CACNA2D3 / RFU, DTX4 / Fold change vs veh, DTX4 / RFU, TFCP2 / Fold change vs veh, TFCP2 / RFU, GMCL1 /// GMCL1P1 / Fold change vs veh, GMCL1 /// GMCL1P1 / RFU, AEBP2 / Fold change vs veh, AEBP2 / RFU, SNHG1 /// SNORD22 /// SNORD25 /// SNORD26 /// SNORD27 /// SNORD28 /// SNORD29 /// SNORD31 / Fold change vs veh, SNHG1 /// SNORD22 /// SNORD25 /// SNORD26 /// SNORD27 /// SNORD28 /// SNORD29 /// SNORD31 / Fold change (Aza/veh), C12orf56 (ProbeSet 11735607_a_at) / Fold change (ACY-1035/veh), C12orf56 (ProbeSet 11735607_a_at) / Fold change (Aza/veh), FGFR1OP (ProbeSet 11751329_s_at) / Fold change (ACY-1035/veh), FGFR1OP (ProbeSet 11751329_s_at) / Fold change (Aza/veh), VPS36 (ProbeSet 11739960_a_at) / Fold change (ACY-1035/veh), VPS36 (ProbeSet 11739960_a_at) / RFU SYPL1 (11715823_x_at) / Fold change /veh SYPL1 (11715823_x_at) / RFU IGFBP7 (11715501_s_at) / Fold change /veh IGFBP7 (11715501_s_at) / RFU REEP3 (11722064_at) / Fold change /veh REEP3 (11722064_at) / RFU IGLL1 (11728026_x_at) / Fold change /veh IGLL1 (11728026_x_at): dose or concentration left out as unconfirmed. Conditions: ProbeSet 11748670_a_at; LIST B.

Turning to `Nc1ccc(-c2cccs2)cc1NC(=O)c1ccc2c(c1)cc(C1CC1)n2CCN1CCOCC1` [ACY-1035], the “RFU, PIK3R1” value was 70.67 RFU.

These data come from publication PMC5218480 (PLoS ONE, 2017).
